# Article PMC11555231 (Nature Communications, 2024)
# Where two headings read alike, the source gives them in different places. Bridge positions count the residues as written; N and C are the ends. Square brackets hold non-standard residues; d marks the D form. Peptide text beside a SMILES is read from it.
# What was measured:
# human neutrophils [1] = test: Ca-ionophore stimulated neutrophils, citrullinated H3 immunostaining and confocal microscopy / immunoblot; assay type: cell-based; conditions: sheet Figure_3G, Ca-I + peptide
# Procedure: (§1) Peripheral venous blood was isolated from consenting healthy adult volunteers in heparin tubes as previously described. Briefly, blood samples were on Histopaque 1119 (Sigma-Aldrich) and then centrifuged for 20 min at 800 × g. The plasma was collected and centrifuged for a second time for 20 min at 800 × g. The neutrophil layer was collected and washed in Hyclone Hank’s Balanced Salt Solution (HBSS) -Ca, -Mg, -Phenol red (GE Healthcare) supplemented with 10 mM HEPES (Invitrogen) 0.1% FBS and further purified with a discontinuous Percoll (GE Healthcare) gradient consisting of layers with densities of 85, 80, 75, 70 and 65% and centrifuged for 20 min at 800 × g. Neutrophil-enriched layers were then collected and washed, and neutrophil purity was assessed using flow cytometry.
# About 5 × 10^4 sorted neutrophils were seeded in 24-well cell culture plates containing glass coverslips in HyClone HBSS +Ca, +Mg, - Phenol red (GE Healthcare) supplemented with 10 mM HEPES (Invitrogen). Neutrophils were stimulated with 5 µM Ca-Ionophore (Sigma) and fixed for 20 min at room temperature with 2% paraformaldehyde at RT. Cells were then washed and permeabilized with 0.5% Triton X-100 in PBS. Non-specific binding was blocked with 2% BSA (Sigma) and 2% donkey serum (Sigma) in PBS. Samples were stained with DAPI (Life Technologies), the rabbit anti-CitH3 (Abcam; ab5103 1:500) and donkey anti-rabbit alexa488 (Invitrogen; A21206). Fluorescence imaging was performed on a Leica TCS SP8 inverted confocal microscope using sequential scan in between frames mode with a 20x objective.
# Neutrophil samples were boiled in a sodium dodecyl sulphate (SDS) buffer containing dithiothreitol (DTT) and run on a polyacrylamide gel electrophoresis (SDS-PAGE) using Criterion TGX precast gels (Any-KD; Bio-Rad Laboratories). Proteins were then transferred to a PVDF membrane (Bio-Rad Laboratories) via semi-dry transfer. The membrane was blocked with 5% BSA (Fisher Scientific) in Tris-buffered saline with 0.1% Tween-20 (TBS-T). Levels of citrullinated histone H3, total H3 and myeloperoxidase (MPO) were assessed by incubating membranes in either anti-histone H3 citrulline R2 + R8 + R17 (Abcam; ab5103 1:1000), anti-histone H3 (Millipore; 07-690 1:10000) or anti-MPO (DAKO; A0398 1:2500) overnight at 4 °C, respectively. For cell lysate-based assays and pull-down assays, membranes were incubated as above with anti-hPADI4 (Abcam; ab50332; 1:1000 in 5% BSA/TBS-T), anti-Bcr (Cell Signalling #3902S; 1:1000 in 3% milk/TBS-T) and anti-Impdh2 (Cell Signalling #57068S; 1:1000 in 3% milk/TBS-T). Membranes were washed in 0.1% TBS-T and subsequently incubated with goat anti-rabbit HRP or anti-goat (Fisher Scientific) for 1 h, followed by final washes in 0.1% TBS-T. Membranes were imaged with enhanced chemiluminescent substrate (ECL) (Thermo Fisher) on a Bio-Rad imager.
# Bio-hPADI4 wt = target: T1, Bio-hPADI4 wt (Homo sapiens, UniProt Q9UM07); test: Surface plasmon resonance (SPR), single cycle kinetics, peptide binding to immobilised PADI4
# T1 construct: PADI4 (residues 1–663); Avi-Tag (biotinylated by BirA); made in house; host or cells: E. coli BL21-DE3 co-expressing BirA
# T1 sequence (Q9UM07 whole entry, the tested form may be a part): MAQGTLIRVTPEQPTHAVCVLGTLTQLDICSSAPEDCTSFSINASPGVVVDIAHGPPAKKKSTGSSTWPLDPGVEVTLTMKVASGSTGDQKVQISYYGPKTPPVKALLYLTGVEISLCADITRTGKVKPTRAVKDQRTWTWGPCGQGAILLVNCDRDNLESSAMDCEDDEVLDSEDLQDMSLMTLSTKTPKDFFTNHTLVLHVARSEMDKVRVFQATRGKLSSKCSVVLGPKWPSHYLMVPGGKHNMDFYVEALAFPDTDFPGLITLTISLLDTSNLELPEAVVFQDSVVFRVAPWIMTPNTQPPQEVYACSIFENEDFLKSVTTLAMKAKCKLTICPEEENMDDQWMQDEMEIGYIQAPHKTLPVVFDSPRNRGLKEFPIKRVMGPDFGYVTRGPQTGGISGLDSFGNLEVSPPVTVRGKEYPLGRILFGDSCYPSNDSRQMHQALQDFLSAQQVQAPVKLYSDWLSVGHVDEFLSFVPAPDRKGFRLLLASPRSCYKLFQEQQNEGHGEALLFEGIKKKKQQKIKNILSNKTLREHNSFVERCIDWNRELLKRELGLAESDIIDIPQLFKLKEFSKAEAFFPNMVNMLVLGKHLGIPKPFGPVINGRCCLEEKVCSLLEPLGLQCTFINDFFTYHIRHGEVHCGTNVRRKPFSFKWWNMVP
# Procedure: Single cycle kinetics analysis by SPR was carried out using a Biacore T200 or S200 and a Biotin CAPture kit, series S (Cytiva). […] 50 mM HEPES (pH 7.5), 150 mM NaCl, 2 mM DTT, 0.05 % Tween-20, 0.1% DMSO and variable CaCl2 (as specified) was used as the running buffer and experiments performed at 25 °C.
# Samples were run with 120 s contact time, and variable dissociation time (often 360 s). Data were analysed using the Biacore T200 analysis software; data was fitted to a 1:1 binding model accounting for baseline drift where necessary. Data are presented as the average ± standard deviation of at least two independent replicates.
# hPADI4 = target: T2, hPADI4 (Homo sapiens, UniProt Q9UM07); test: COLDER assay, inhibition of PADI4 at 10 mM CaCl2 (substrate BAEE); assay type: biochemical; conditions: COLDER inhibition assay; mean of the 3 experiments printed beside it (stdev in a separate column); read-out: IC50
# T2 construct: PADI4 (residues 1–663); Avi-Tag (unbiotinylated); made in house; host or cells: E. coli BL21(DE3) without BirA
# T2 sequence (Q9UM07 whole entry, the tested form may be a part): as above
# Procedure: PADI4 activity was assessed using the COLDER assay[43] that measures the formation of urea-containing compounds (e.g. citrulline). The reaction was carried out in a 96-well plate with a final volume of 50 µl. His-PADI4 (50 nM) was incubated with different concentrations of peptides (100 µM to 0.3 nM) in the presence of CaCl2 (from 10 mM to 0.001 mM as specified) for 10 min. The reaction was started by the addition of 10 mM N^α-Benzoyl-L-arginine ethyl ester hydrochloride (BAEE, Merck). After 30 min, the reaction was quenched with EDTA (50 mM final concentration). For colour development, 200 µl of COLDER solution, consisting of 1 volume of solution A (80 mM diacetyl monoxime/2,3-butanedione monoxime (Merck) and 2 mM thiosemicarbazide (Acros Organics)) and 3 volumes of solution B (3 M H3PO4, 6 M H2SO4 and 2 mM NH4Fe(SO4)2) were added to each well and the mixture was heated at 95 °C for 15 min. After cooling to RT, absorbance at 540 nm was measured, and citrulline concentration was determined using a standard curve of citrulline standards. All studies were performed within the linear range of PADI4 activity, and data analysis was performed using Prism GraphPad (Dotmatics). Data are presented as the average ± standard error of the mean from at least two independent replicates.
# human neutrophils [2] = test: Time-lapse imaging and NET quantification (NETosis); assay type: cell-based
# Procedure: as §1
# About 5 × 10^4 human neutrophils were seeded in a black 96-well plate (PerkinElmer) in HyClone HBSS +Ca, +Mg, - Phenol red (GE Healthcare) containing 10 mM HEPES (Invitrogen). Cells were pre-incubated with the corresponding peptide for 60 min prior to the start of the experiment. DNA of live cells was stained with 4 µg/mL Hoechst (membrane permeable; Thermo Scientific) and DNA from dead cells with 0.2 µM Sytox-green (membrane impermeable; Invitrogen). Cells were stimulated with 100 nM PMA, 5 µM Ca-Ionophore or 0.1 mg/mL cholesterol crystals at the start of the microscope acquisition. Plates stimulated with cholesterol crystals were centrifuged at 300×g for 5 min at RT immediately prior to microscope acquisition. The cells were imaged on an inverted Nikon wide-field microscope system at 37 °C and CO2 (5%). Four fields of view were acquired per well every 15 mins for 10–15 h using a 40x objective. NETs were differentiated from necrotic cells by the size of the sytox signal using FIJI[86]. […] [85]. Area measurements were distributed into bins of increasing area sizes and plotted as a percentage of the total number of Sytox-green positive (dead) cells.
# [3] = DNA area (μm) 1500, replicate 1
# [4] = DNA area (μm) 1500, replicate 2
# [5] = DNA area (μm) 1500, replicate 4
Structure (SMILES),"share per DNA area bin (human neutrophils [2]; DNA area (μm) 150, replicate 1)","share per DNA area bin (human neutrophils [2]; DNA area (μm) 150, replicate 2)","share per DNA area bin (human neutrophils [2]; DNA area (μm) 150, replicate 3)","share per DNA area bin (human neutrophils [2]; DNA area (μm) 150, replicate 4)","share per DNA area bin (human neutrophils [2]; DNA area (μm) 250, replicate 1)","share per DNA area bin (human neutrophils [2]; DNA area (μm) 250, replicate 2)","share per DNA area bin (human neutrophils [2]; DNA area (μm) 250, replicate 3)","share per DNA area bin (human neutrophils [2]; DNA area (μm) 250, replicate 4)","share per DNA area bin (human neutrophils [2]; DNA area (μm) 750, replicate 1)","share per DNA area bin (human neutrophils [2]; DNA area (μm) 750, replicate 2)","share per DNA area bin (human neutrophils [2]; DNA area (μm) 750, replicate 3)","share per DNA area bin (human neutrophils [2]; DNA area (μm) 750, replicate 4)",share per DNA area bin (human neutrophils [2]; [3]),share per DNA area bin (human neutrophils [2]; [4]),share per DNA area bin (human neutrophils [2]; [5]),also measured
N=C(N)NCCC[C@@H]1NC(=O)[C@H](CC(=O)O)NC(=O)[C@@H](Cc2ccc(O)cc2)NC(=O)CSC[C@@H](C(=O)NCC(N)=O)NC(=O)[C@H](Cc2ccc(O)cc2)NC(=O)[C@H](CCCCN)NC(=O)[C@@H]2CCCN2C(=O)[C@H](Cc2c[nH]cn2)NC(=O)[C@H](CCCNC(=N)N)NC(=O)[C@H](Cc2ccc(O)cc2)NC(=O)[C@H](Cc2c[nH]cn2)NC(=O)[C@H](Cc2c[nH]cn2)NC1=O [PADI4-3i] ({CH2CO}-[dY]DRHHYRHPKYCG-NH2; thioether N-12),,,,,,,,,,,,,,,,Figure 3G quantification in Ca-I stimulated neutrophils (citrullinated H3 immunostaining) (human neutrophils [1]; replicate 1 (first data row)): 33.3333; Figure 3G quantification in Ca-I stimulated neutrophils (citrullinated H3 immunostaining) (human neutrophils [1]; replicate 2 (second data row)): 50; Figure 3G quantification in Ca-I stimulated neutrophils (citrullinated H3 immunostaining) (human neutrophils [1]; replicate 3 (third data row)): 41.6667; Figure 3G quantification in Ca-I stimulated neutrophils (citrullinated H3 immunostaining) (human neutrophils [1]; replicate 4 (fourth data row)): 50
CC(C)C[C@H](NC(=O)[C@H](CCC(N)=O)NC(=O)[C@H](CC(C)C)NC(=O)[C@@H](NC(=O)[C@H](C)NC(=O)[C@H](CCCNC(=N)N)NC(=O)[C@H](Cc1ccc(O)cc1)NC(=O)[C@H](CCCNC(=N)N)NC(=O)[C@@H]1CSCC(=O)N[C@@H](Cc2ccc(O)cc2)C(=O)N[C@@H](CCC(=O)O)C(=O)N[C@@H](CO)C(=O)N1)C(C)C)C(N)=O [Q8A] ({CH2CO}-YESCRYRAVLQL-NH2; thioether N-4),,,,,,,,,,,,,,,,"Kd (Bio-hPADI4 wt; Fig. 5D, mean ± SEM of three independent repeats, read-out: KD (µM) of PADI4_11 analogues): 0.5 ± 0.3 µM"
N=C(N)NCCC[C@@H]1NC(=O)[C@@H](Cc2ccc(O)cc2)NC(=O)CSC[C@@H](C(=O)NCC(N)=O)NC(=O)[C@H](Cc2ccc(O)cc2)NC(=O)[C@H](CCCCN)NC(=O)[C@@H]2CCCN2C(=O)[C@H](Cc2c[nH]cn2)NC(=O)[C@H](Cc2c[nH]c3ccccc23)NC(=O)[C@H](Cc2ccc(O)cc2)NC(=O)[C@H](Cc2c[nH]cn2)NC(=O)[C@H](Cc2c[nH]cn2)NC(=O)[C@H](CC(=O)O)NC1=O [PADI4_3.20] ({CH2CO}-[dY]RDHHYWHPKYCG-NH2; thioether N-12),,,,,,,,,,,,,,,,IC50 (hPADI4): 0.0791 µM
N=C(N)NCCC[C@@H]1NC(=O)[C@H](CC(=O)O)NC(=O)[C@@H](Cc2ccc(O)cc2)NC(=O)CSC[C@@H](C(=O)NCC(N)=O)NC(=O)[C@H](Cc2ccc(O)cc2)NC(=O)[C@H](CCCCN)NC(=O)[C@@H]2CCCN2C(=O)[C@H](Cc2c[nH]cn2)NC(=O)[C@H](CCCNC(=N)N)NC(=O)[C@H](Cc2ccc(O)cc2)NC(=O)[C@H](Cc2c[nH]cn2)NC(=O)[C@H](Cc2c[nH]cn2)NC1=O [PAD4-3inv] ({CH2CO}-[dY]DRHHYRHPKYCG-NH2; thioether N-12),64,52.1739,52.1739,45.1613,20,0,17.3913,22.5806,16,47.8261,30.4348,29.0323,0,0,3.2258,
CC[C@H](C)[C@@H]1NC(=O)[C@H](CC(C)C)NC(=O)[C@H](Cc2c[nH]c3ccccc23)NC(=O)[C@@H]2CCCN2C(=O)[C@H]([C@@H](C)O)NC(=O)[C@H](C)NC(=O)[C@@H](Cc2ccc(O)cc2)NC(=O)CSC[C@@H](C(=O)NCC(N)=O)NC(=O)[C@H](CC(C)C)NC(=O)[C@H](C(C)C)NC(=O)[C@H](C(C)C)NC1=O [PADI4_5] ({CH2CO}-[dY]ATPWLIVVLCG-NH2; thioether N-11),,,,,,,,,,,,,,,,"Kd (Bio-hPADI4 wt; 0 mM CaCl2, 25 °C, read-out: KD 0 mM CaCl2, bound printed in µM): > 2 µM; Kd (Bio-hPADI4 wt; 10 mM CaCl2, PADI4 active site blocked with Cl-amidine, 25 °C, read-out: KD 10 mM CaCl2 + Cl-amidine, bound given in µM): > 2 µM; Kd (Bio-hPADI4 wt; 10 mM CaCl2 in running buffer, 25 °C, read-out: KD 10 mM CaCl2, bound printed in µM): > 2 µM"
N=C(N)NCCC[C@@H]1NC(=O)[C@H](Cc2ccc(O)cc2)NC(=O)[C@H](Cc2c[nH]cn2)NC(=O)[C@H](Cc2c[nH]cn2)NC(=O)[C@H](CC(=O)O)NC(=O)[C@H](CCCNC(=N)N)NC(=O)[C@@H](Cc2ccc(O)cc2)NC(=O)CSC[C@@H](C(=O)NCC(N)=O)NC(=O)[C@H](Cc2ccc(O)cc2)NC(=O)[C@H](CCCCN)NC(=O)[C@@H]2CCCN2C(=O)[C@H](Cc2c[nH]cn2)NC1=O [PAD4-3] ({CH2CO}-[dY]RDHHYRHPKYCG-NH2; thioether N-12),61.7647,57.1429,62.8571,54.7619,14.7059,5.7143,5.7143,21.4286,23.5294,37.1429,31.4286,23.8095,0,0,0,"share per DNA area bin (human neutrophils [2]; DNA area (μm) 1500, replicate 3): 0"
